In publication PMC7709805 (Biochemistry (Moscow) Supplement. Series A, Membrane and …, 2020):
Like-named read-outs stand apart in the source and are kept apart here.

Experiments:
[1] = concentrations of the order of tens of μM; cited from earlier work
[2] = system: macrophages IC-21; details: peptide at 50 μM, IC-21 cells, 1 h
[3] = system: macrophages IC-21; format: cell-based, mouse
[4] = system: macrophages IC-21; experiment: Binding of 2-μm non-opsonized latex particles by macrophages; format: cell-based, mouse
[5] = system: hepatitis C virus; details: in vitro; cited from earlier work

In the case of ATVLNYYVWRDNS, the Toxicity [1] is listed as “not toxic”.

For “Ac-EWGMAVLWERNRKLKKDLKVLKMLRT-NH2 [Mut1]”, the “Toxic effect on cells” value [2] was “did not exert a toxic effect”, the “Number of particles per cell, % of the control” value ([3]; peptide at 2 μM, cells not treated with mβCD, representative experiment (Fig. 5)) was 134 % of the control and the “Number of particles per cell, % of the control” value ([4]; Mut1 at 2–10 μM, 7 independent experiments) was ~ 160 % of the control. For the same substance, the “Concentration range at which maximal stimulatory effect was observed” value ([4]; number of particles per cell, IC-21, 1 h at 37°C, peptide range 0.5 to 50 μM) was 4 to 5 µM and the “Phagocytic index relative to control” value ([4]; peptide at 50 μM, 7 independent experiments) was “returned to the control level”.

With “Ac-STKLSEMLSELGNMDKASKLSRKLSR-NH2 [Mut2]” the “Toxic effect on cells” value [2] was “not toxic” and the “Change in the phagocytosis index” value ([4]; concentration range from 0.5 to 50 μM, 6 independent experiments for each peptide) was “did not cause significant changes”.

For SWLRDIWDWICEVLSDFK [C5A], the “Suppression of virus production” value [5] is given as “more than 5 orders of magnitude”.

For VLNYYVW, the Toxicity [1] is given as “not toxic”.

In the case of “methyl-β-cyclodextrin [mβCD, reference compound]”, the “Cell activity, % of the control” value ([3]; 3.7 mM mβCD, without a peptide, representative experiment, p < 0.001) is reported as 121 % of the control.
